Our source for the T/C values is PubChem BioAssay AID330 (DTP/NCI, 2004).

The assay has as its system P388 leukemia ip, CD2F1 mice, survival T/C. The assay can be described thus: NCI In Vivo Anticancer Drug Screen. Data for tumor model P388 Leukemia (intraperitoneal) in CD2F1 (CDF1) mice. Particulars: endpoint: median survival time, higher = longer survival. Put shortly:
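Mice carrying the transplanted tumor received test compound or vehicle. Survival was recorded in each group, and the value is the treated-group measurement divided by that of the vehicle-treated control group.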

Setting [1] is: dose: 12.5 mg/kg/injection, schedule: Q01DX009 (ip), vehicle: Klucel (hydroxypropylcellulose) (HPC).
[2] abbreviates: dose: 200.0 mg/kg/injection, schedule: Q01DX005 (ip), vehicle: Klucel (hydroxypropylcellulose) (HPC).
Where [3] appears, read: dose: 50.0 mg/kg/injection, schedule: Q01DX005 (ip), vehicle: saline.
Setting [4] is: dose: 100.0 mg/kg/injection, schedule: Q01DX005 (ip), vehicle: saline.
The mark [5] stands for this setting: dose: 200.0 mg/kg/injection, schedule: Q01DX005 (ip), vehicle: saline.
Setting [6] is: dose: 50.0 mg/kg/injection, schedule: Q01DX009 (ip), vehicle: saline with Tween-80.
Where [7] appears, read: dose: 50.0 mg/kg/injection, schedule: Q01DX005 (ip), vehicle: Klucel (hydroxypropylcellulose) (HPC).
Where [8] appears, read: dose: 100.0 mg/kg/injection, schedule: Q01DX005 (ip), vehicle: Klucel (hydroxypropylcellulose) (HPC).
Setting [9] is: dose: 100.0 mg/kg/injection, schedule: Q01DX009 (ip), vehicle: saline.
Where [10] appears, read: dose: 200.0 mg/kg/injection, schedule: Q01DX009 (ip), vehicle: saline.
Setting [11] is: dose: 400.0 mg/kg/injection, schedule: Q01DX009 (ip), vehicle: saline.

SMILES strings stand for the structures. Several values for one entry are separate records, joined by “and”; a condition that tells them apart may be missing. Identical values can stand only once. Toxic doses and inconclusive results are not listed.

With `O=C(NCC(CC(NC(=O)c1ccccc1)C(=O)O)NC(=O)c1ccccc1)c1ccccc1` (configuration not stated), the T/C runs as follows: under setting [1], 89 % of control; (dose: 25.0 mg/kg/injection, schedule: Q01DX009 (ip), vehicle: Klucel (hydroxypropylcellulose) (HPC)) 91 % of control; (dose: 50.0 mg/kg/injection, schedule: Q01DX009 (ip), vehicle: Klucel (hydroxypropylcellulose) (HPC)) 93 % of control; (dose: 100.0 mg/kg/injection, schedule: Q01DX009 (ip), vehicle: Klucel (hydroxypropylcellulose) (HPC)) 89 % of control; (dose: 200.0 mg/kg/injection, schedule: Q01DX009 (ip), vehicle: Klucel (hydroxypropylcellulose) (HPC)) 90 % of control.
For the compound `O=C1C(Cl)=C(NC(CO)(CO)CO)C(=O)c2ccccc21`, the T/C was 92 % of control (dose: 25.0 mg/kg/injection, schedule: Q01DX001 (ip), vehicle: saline with Tween-80); 93 % of control (dose: 50.0 mg/kg/injection, schedule: Q01DX001 (ip), vehicle: saline with Tween-80); 101 % of control (dose: 100.0 mg/kg/injection, schedule: Q01DX001 (ip), vehicle: saline with Tween-80).
Turning to `C/C(=N\N=C(/[Se])N1CC2CCC(CC2)C1)c1ccccn1`, the T/C (dose: 1.56 mg/kg/injection, schedule: Q01DX009 (ip), vehicle: Klucel (hydroxypropylcellulose) (HPC)) is 100 % of control; the T/C (dose: 3.12 mg/kg/injection, schedule: Q01DX009 (ip), vehicle: Klucel (hydroxypropylcellulose) (HPC)) was 124 % of control; the T/C under setting [1] was 98 % of control and 97 % of control.
For `c1cc2c3c(ccc2c2c1OCN(C1CCCCC1)C2)OCN(C1CCCCC1)C3`, the T/C (dose: 3.12 mg/kg/injection, schedule: Q01DX005 (ip), vehicle: Klucel (hydroxypropylcellulose) (HPC)) is 96 % of control; the T/C (dose: 6.25 mg/kg/injection, schedule: Q01DX005 (ip), vehicle: Klucel (hydroxypropylcellulose) (HPC)) is 91 % of control; the T/C (dose: 12.5 mg/kg/injection, schedule: Q01DX005 (ip), vehicle: Klucel (hydroxypropylcellulose) (HPC)) is 90 % of control; the T/C under setting [2] is 94 % of control.
For `O=[N+]([O-])C(CO)CCCC(CO)[N+](=O)[O-]` (configuration not stated), the T/C was 111 % of control under setting [3], 107 % of control under setting [4] and 107 % of control under setting [5].
In the case of `CCCCCCCCCCCCSC1=C(Cl)C(=O)C(OC)=C(OC)C1=O`, the T/C by setting is: (dose: 6.0 mg/kg/injection, schedule: Q01DX Z (ip), vehicle: saline) 103 % of control; (dose: 6.25 mg/kg/injection, schedule: Q01DX009 (ip), vehicle: saline with Tween-80) 105 % of control; (dose: 12.0 mg/kg/injection, schedule: Q01DX Z (ip), vehicle: saline) 100 % of control; (dose: 12.5 mg/kg/injection, schedule: Q01DX009 (ip), vehicle: saline with Tween-80) 108 % of control; (dose: 25.0 mg/kg/injection, schedule: Q01DX009 (ip), vehicle: saline with Tween-80) 121 % of control; (dose: 25.0 mg/kg/injection, schedule: Q01DX Z (ip), vehicle: saline) 100 % of control. Also, the T/C is 119 % of control under setting [6] and 92 % of control (dose: 50.0 mg/kg/injection, schedule: Q01DX Z (ip), vehicle: saline).
Take `O=c1c2ccccc2c(=O)n2n1C1C=CC2C1`: the T/C by setting is: under setting [7], 107 % of control; under setting [8], 105 % of control; under setting [2], 100 % of control.
Consider `NC(=S)N/N=C/c1ccccc1`, for which the T/C reads like this: (dose: 12.5 mg/kg/injection, schedule: Q04DX003 (ip), vehicle: Klucel (hydroxypropylcellulose) (HPC)) 116 % of control; (dose: 25.0 mg/kg/injection, schedule: Q04DX003 (ip), vehicle: Klucel (hydroxypropylcellulose) (HPC)) 109 % of control.
For the compound `N#CC1=CN=C2C=CC=C3N=C(C(Cl)(Cl)Cl)N=C1N32`, the T/C is 92 % of control (dose: 15.0 mg/kg/injection, schedule: Q01DX005 (ip), vehicle: Klucel + Tween-80); 87 % of control (dose: 30.0 mg/kg/injection, schedule: Q01DX005 (ip), vehicle: Klucel + Tween-80); 93 % of control (dose: 60.0 mg/kg/injection, schedule: Q01DX005 (ip), vehicle: Klucel + Tween-80).
For the compound `Cc1cccc(=O)[n-]1.Cc1cccc(=O)[n-]1.Cc1cccc(=O)[n-]1.Cc1cccc(=O)[n-]1.[Cu+].[Cu+].[Cu+].[Cu+]`, the T/C runs as follows: (dose: 12.5 mg/kg/injection, schedule: Q04DX002 (ip), vehicle: Klucel (hydroxypropylcellulose) (HPC)) 108 % of control; (dose: 25.0 mg/kg/injection, schedule: Q04DX002 (ip), vehicle: Klucel (hydroxypropylcellulose) (HPC)) 109 % of control; (dose: 50.0 mg/kg/injection, schedule: Q04DX002 (ip), vehicle: Klucel (hydroxypropylcellulose) (HPC)) 100 % of control; (dose: 100.0 mg/kg/injection, schedule: Q04DX002 (ip), vehicle: Klucel (hydroxypropylcellulose) (HPC)) 108 % of control.
Take `CC1(C)C2(C(N)=O)C(=O)NC(=O)C12C(=O)O` (configuration not stated): the T/C is 95 % of control (dose: 25.0 mg/kg/injection, schedule: Q04DX002 (ip), vehicle: saline with Tween-80); 104 % of control (dose: 50.0 mg/kg/injection, schedule: Q04DX002 (ip), vehicle: saline with Tween-80); 103 % of control (dose: 100.0 mg/kg/injection, schedule: Q04DX002 (ip), vehicle: saline with Tween-80).
Regarding `Nc1ccn(C2OC3COC2C3O)c(=O)n1` (configuration not stated), the T/C was 112 % of control (dose: 25.0 mg/kg/injection, schedule: Q01DX009 (ip), vehicle: saline); 100 % of control (dose: 50.0 mg/kg/injection, schedule: Q01DX009 (ip), vehicle: saline + alcohol); 110 % of control (dose: 50.0 mg/kg/injection, schedule: Q01DX009 (ip), vehicle: saline); 105 % of control (dose: 100.0 mg/kg/injection, schedule: Q01DX009 (ip), vehicle: saline + alcohol); 116 % of control under setting [9]; 112 % of control (dose: 200.0 mg/kg/injection, schedule: Q01DX009 (ip), vehicle: saline + alcohol). In addition, the T/C was 117 % of control under setting [10]; 112 % of control (dose: 400.0 mg/kg/injection, schedule: Q01DX009 (ip), vehicle: saline + alcohol); 122 % of control under setting [11]; 114 % of control (dose: 800.0 mg/kg/injection, schedule: Q01DX009 (ip), vehicle: saline + alcohol).
Consider `COCCN(CCOC)C1C2=C(CCCC2)OS(=O)(=O)C1c1ccccc1` (configuration not stated), for which the T/C reads like this: (dose: 60.0 mg/kg/injection, schedule: Q01DX005 (ip), vehicle: Klucel (hydroxypropylcellulose) (HPC)) 101 % of control; (dose: 120.0 mg/kg/injection, schedule: Q01DX005 (ip), vehicle: Klucel (hydroxypropylcellulose) (HPC)) 105 % of control; (dose: 240.0 mg/kg/injection, schedule: Q01DX005 (ip), vehicle: Klucel (hydroxypropylcellulose) (HPC)) 104 % of control.
`O=[N+]([O-])c1ccc2c(c1)sc1cc([N+](=O)[O-])c(Br)cc12`: the T/C is 104 % of control under setting [6]; 102 % of control (dose: 100.0 mg/kg/injection, schedule: Q01DX009 (ip), vehicle: saline with Tween-80); 112 % of control (dose: 200.0 mg/kg/injection, schedule: Q01DX009 (ip), vehicle: saline with Tween-80); 103 % of control (dose: 400.0 mg/kg/injection, schedule: Q01DX009 (ip), vehicle: saline with Tween-80).
Consider `CCOC(=O)OCC1=Nc2cccc3cccc(c23)N1`, for which the T/C by setting is: under setting [7], 100 % of control; under setting [8], 110 % of control; under setting [2], 108 % of control.
For `COC1OC(CO)C(O)C(NC(=O)N(C)N=O)C1O` (configuration not stated), the T/C is 169 % of control and 187 % of control under setting [9]; 218 % of control and 232 % of control under setting [10]; 105 % of control and 117 % of control under setting [11].
On to `COC(=O)C(CCl)NC(C)=O` (configuration not stated), for which the T/C is, setting by setting: under setting [3], 97 % of control; under setting [4], 100 % of control; under setting [5], 101 % of control.
Consider `CCOc1ccc(C(C)c2cc3c(cc2OCC(=O)O)OCO3)cc1` (configuration not stated), for which the T/C by setting is: (dose: 50.0 mg/kg/injection, schedule: Q01DX005 (ip), vehicle: saline with Tween-80) 109 % of control; (dose: 100.0 mg/kg/injection, schedule: Q01DX005 (ip), vehicle: saline with Tween-80) 90 % of control.
Regarding `CNC(=O)c1nnn(Cc2ccc(OC)cc2)c1Cl`, the T/C was 91 % of control under setting [7], 100 % of control under setting [8] and 100 % of control under setting [2].
